The values below come from patent publication US20240360122A1, “POLYMORPHIC FORMS AND SALTS OF A GLP-1R AGONIST” (Terns (Suzhou) Biotechnology Co., Ltd., priority 2023, published 2024).

SMILES strings stand for the structures. ≈ marks a conversion by molar mass, not a printed value. Entries after “also recorded” stand apart in the source; their conditions may differ. Counter-ions that a name gives are not always drawn.

Type in all cases: physicochemical
Data set [1] in a line: Chemical stability studies of Compound 1 meglumine salt at high temperatures. As to conditions: solution and solid states.
A short description of data set [2]: Kinetic solubility in water and bio-relevant media (SGF, FaSSIF, FeSSIF) at 37° C. Conditions: for S: Solubility: calculated by freeform; for FC: Form change: residual solids by XRPD. A digest of the protocol: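 Compound rolled at 37 °C (~25 rpm) in water, SGF (pH 1.8, NaCl, Triton X-100), FaSSIF (pH 6.5 phosphate, SIF powder) or FeSSIF (pH 5.0 acetate, SIF powder). Samples at 1, 2, 4 and 24 h were centrifuged and 0.45 μm-filtered; filtrate concentration and pH measured, residual solid checked by XRPD.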

Data set [3] is described as follows: pH solubility in pH 1.0-8.0 buffers at RT. Conditions: thermodynamic from solid; for solubility at 24 h: LOQ = 0.0001 mg/mL; for solubility: pH buffers, 2 and 24 hours. As to the method: The procedures were listed below:
1. […] Add 2 ml, of the corresponding medium.
2. Mixed well and stirred at RT (1000 rpm). Check the pH and adjust it back to the target pH after dosing.
3. Sampled after 2 hours and 24 hours. The supernatant was isolated by centrifugation (12000 rpm, 5 min) and filtration (0.22 μm, PTFE) for pH and HPLC test.

Data set [4] is described as follows: Hygroscopicity by DVS at 25° C. As to the method: DVS was measured via a SMS (Surface Measurement Systems) DVS Intrinsic. The relative humidity at 25° C. were calibrated against deliquescence point of LiCl, Mg(NO3)2 and KCl.
Data set [5] is described as follows: Solid state stability at 25° C./60% RH and 40° C./75% RH for 1 week. The protocol: Each sample was added into a glass vial, sealed by parafilm with several holes, and kept under tested conditions. After one week, samples were taken for XRPD and HPLC purity test.
Data set [6] in a line: Slurry competition among Freeform Type A/C/M. As to conditions: slurry competition in EtOAc and ACN, RT and 50° C. The protocol: The detailed procedures are as following:
1. […] Add 1 mL corresponding solvent.
2. Magnetically stirred at RT or 50° C. for 4 hours. Filter through 0.45 μm PTFE filter to obtain clear solution.
4. Magnetically stirred at RT or 50° C. for 4 days. Tested XRPD of the wet cake.

Regarding `N#Cc1ccc(COc2cccc(C3CCN(Cc4nc5ccc(C(=O)O)cc5n4Cc4cncs4)CC3)n2)c(F)c1` [Compound 1 meglumine salt], in data set [1], the chemical stability entry is listed as “generally stable”.

On to `N#Cc1ccc(COc2cccc(C3CCN(Cc4nc5ccc(C(=O)O)cc5n4Cc4cncs4)CC3)n2)c(F)c1` [Freeform Type C], for which the “S: Solubility” value in data set [2] (FaSSIF, 37° C., 1 hr) is 2 µg/mL; in data set [2] (FaSSIF, 37° C., 2 hrs), 7 µg/mL; in data set [2] (FaSSIF, 37° C., 4 hrs), 5 µg/mL; in data set [2] (FaSSIF, 37° C., 24 hrs), 3 µg/mL; in data set [2] (FeSSIF, 37° C., 24 hrs), 8 µg/mL; in data set [2] (H2O, 37° C., 1 hr), 20 µg/mL. Besides, the “S: Solubility” value in data set [2] (H2O, 37° C., 2 hrs) was 27 µg/mL; in data set [2] (H2O, 37° C., 4 hrs), 20 µg/mL; in data set [2] (H2O, 37° C., 24 hrs) it was 8 µg/mL; in data set [2] (SGF, 37° C., 1 hr), 83 µg/mL; in data set [2] (SGF, 37° C., 2 hrs), 72 µg/mL; in data set [2] (SGF, 37° C., 4 hrs), 75 µg/mL. In data set [2] (SGF, 37° C., 24 hrs), the “S: Solubility” value was 78 µg/mL. Besides, the “FC: Form change” value in data set [2] (FaSSIF, 37° C., 1 hr) is given as “No”; in data set [2] (FaSSIF, 37° C., 2 hrs), “No”; in data set [2] (FaSSIF, 37° C., 4 hrs), “No”; in data set [2] (FaSSIF, 37° C., 24 hrs), “No”; in data set [2] (FeSSIF, 37° C., 1 hr), “No”; in data set [2] (FeSSIF, 37° C., 2 hrs), “No”. The “FC: Form change” value in data set [2] (FeSSIF, 37° C., 4 hrs) is listed as “No”; in data set [2] (FeSSIF, 37° C., 24 hrs), “No”; in data set [2] (H2O, 37° C., 1 hr), “No”; in data set [2] (H2O, 37° C., 2 hrs), “No”; in data set [2] (H2O, 37° C., 4 hrs) it was “No”; in data set [2] (H2O, 37° C., 24 hrs), “No”. Moreover, the “FC: Form change” value in data set [2] (SGF, 37° C., 1 hr) was “No”; in data set [2] (SGF, 37° C., 2 hrs) it was “No”; in data set [2] (SGF, 37° C., 4 hrs), “No”; in data set [2] (SGF, 37° C., 24 hrs), “No”. For the same molecule, the “form change of residual solids (XRPD) after solubility test” value in data set [2] (all the media (H2O, SGF, FaSSIF, FeSSIF), after 24 hrs) is on record as “No form change”. Further, the “solubility compared with the other selected salts” value in data set [2] (all the media, 37° C.) is “lowest solubility”. Moreover, the solubility at 24 h was 130 µg/mL (≈ 223 µM) in data set [3] (pH 1.0 buffer, pH 1, aqueous buffer) and 17 µg/mL (≈ 29.2 µM) in data set [3] (pH 2.0 buffer, pH 2, aqueous buffer). The solubility in data set [3] (pH 1, aqueous buffer, pH 1.0 buffer) was at least 130 µg/mL; in data set [3] (pH 2, aqueous buffer, pH 2.0˜8.0 buffers), at most 34 µg/mL. Also, the “water uptake (DVS)” value in data set [4] (25° C./80% RH) is reported as 0.12%. Besides, the hygroscopicity result in data set [4] (DVS, 25° C.) is reported as “non-hygroscopic”. Besides, in data set [4] (DVS, 25° C./80% RH), the “Water uptake at 25° C./80% RH” value came out at 0.12 wt %. The “For change after DVS” value in data set [4] (XRPD after DVS test) is reported as “No”. In data set [4] (after DVS test), the “form change after DVS test (XRPD)” value is on record as “no form change”. Further, the Form change result in data set [5] (25° C./60% RH/Open/1 week) and in data set [5] (40° C./75% RH/Open/1 week) was “No” each time. The Purity in data set [5] (25° C./60% RH/Open/1 week) is reported as 96.58 Area %; in data set [5] (40° C./75% RH/Open/1 week) it was 96.69 Area %; in data set [5] (Initial) it was 96.59 Area %. Further, the “solid-state stability: form change and purity decrease” value in data set [5] (25° C./60% RH/open and 40° C./75% RH/open, 1 week) is given as “no form change or significant purity decrease”. Also, the “thermodynamic stability relationship among freeform anhydrates” value in data set [6] is listed as “thermodynamically more stable anhydrate; also recorded: thermodynamically more stable form”.

What is called solubility is how much of the substance goes into solution per volume.
